Article PMC11620503 (Antimicrobial Agents and Chemotherapy, 2024)
In brackets after ≈: the same amount, converted by molar mass. Read-outs that look alike come from different tables or passages of the source.

Experiments:
[1] = tested on: 207 Enterobacterales including carbapenem-resistant isolates; assay: MIC, broth microdilution; format: cell-based
[2] = tested on: MEM-nonsusceptible Enterobacterales; assay: MIC, broth microdilution; format: cell-based; settings: for CLSI MIC interpretation I (intermediate) / CLSI MIC interpretation R (resistant) / CLSI MIC interpretation S (susceptible): CLSI breakpoints, marked c: breakpoints for β-lactam alone; for MIC50 / MIC90: fixed concentration (μg/mL) in label
[3] = tested on: serine-carbapenemase-producing isolates (Enterobacterales); assay: MIC, broth microdilution; format: cell-based; settings: for MIC50 / MIC90: fixed concentration (μg/mL) in label
[4] = tested on: MBL-producing isolates (Enterobacterales); assay: MIC, broth microdilution; format: cell-based; settings: for MIC50 / MIC90: fixed concentration (μg/mL) in label; for MIC50: read-out: MIC50; for MIC90: read-out: MIC90
[5] = tested on: 55 isolates of A. baumannii; assay: MIC, broth microdilution; format: cell-based, Acinetobacter baumannii
[6] = tested on: 96 P. aeruginosa; assay: MIC, broth microdilution; format: cell-based, Pseudomonas aeruginosa
[7] = tested on: MEM-, imipenem/relebactam-, and ceftolozane/tazobactam-nonsusceptible P. aeruginosa; assay: MIC, broth microdilution; format: cell-based, Pseudomonas aeruginosa; settings: for CLSI MIC interpretation I (intermediate) / CLSI MIC interpretation R (resistant) / CLSI MIC interpretation S (susceptible): CLSI breakpoints, marked c: breakpoints for β-lactam alone; for MIC50: Pseudomonas aeruginosa, fixed concentration (μg/mL) in label, read-out: MIC50
[8] = tested on: E. coli CDC-149 (NDM-7), PBP3 mutations; assay: MIC, broth microdilution; format: cell-based; settings: Escherichia coli
[9] = tested on: E. coli CDC-435 (NDM-1), PBP3 mutations; assay: MIC, broth microdilution; format: cell-based; settings: Escherichia coli, fixed BLI concentration (μg/mL) in parentheses in label
[10] = tested on: Staphylococcus aureus KUB4690/methicillin-resistant; assay: MIC, reference strains of aerobic bacteria; format: cell-based
[11] = tested on: Staphylococcus epidermidis KUB4862/methicillin-resistant; assay: MIC, reference strains of aerobic bacteria; format: cell-based
[12] = tested on: Enterococcus faecalis ATCC 29212; assay: MIC, reference strains of aerobic bacteria; format: cell-based; settings: ATCC29212
[13] = tested on: Streptococcus pyogenes ATCC 12344; assay: MIC, reference strains of aerobic bacteria; format: cell-based; settings: ATCC12344
[14] = tested on: Streptococcus mitis GTC495 (ATCC 49456); assay: MIC, reference strains of aerobic bacteria; format: cell-based; settings: ATCC49456
[15] = tested on: Streptococcus mutans GTC218; assay: MIC, reference strains of aerobic bacteria; format: cell-based
[16] = tested on: Streptococcus porcinus ATCC 12391; assay: MIC, reference strains of aerobic bacteria; format: cell-based; settings: ATCC12391
[17] = tested on: Streptococcus salivarius GTC215; assay: MIC, reference strains of aerobic bacteria; format: cell-based
[18] = tested on: Pseudomonas aeruginosa ATCC 27853; assay: MIC, reference strains of aerobic bacteria; format: cell-based; settings: ATCC27853
[19] = tested on: Citrobacter freundii ATCC 8090; assay: MIC, reference strains of aerobic bacteria; format: cell-based; settings: ATCC8090
[20] = tested on: Providencia rettgeri ATCC 9250; assay: MIC, reference strains of aerobic bacteria; format: cell-based; settings: ATCC9250
[21] = tested on: Enterobacter hormaechei ATCC BAA-2082; assay: MIC, reference strains of aerobic bacteria; format: cell-based; settings: ATCCBAA2082
[22] = tested on: Enterobacter cloacae NBRC 13535 (ATCC 13047); assay: MIC, reference strains of aerobic bacteria; format: cell-based
[23] = tested on: Proteus mirabilis NBRC 3849 (NCTC 6197); assay: MIC, reference strains of aerobic bacteria; format: cell-based
[24] = tested on: Proteus vulgaris ATCC 6380; assay: MIC, reference strains of aerobic bacteria; format: cell-based; settings: ATCC6380
[25] = tested on: MEM-nonsusceptible Enterobacterales with serine-carbapenemases; assay: MIC, broth microdilution; format: cell-based; settings: for CLSI MIC interpretation I (intermediate) / CLSI MIC interpretation R (resistant) / CLSI MIC interpretation S (susceptible): CLSI breakpoints, marked c: breakpoints for β-lactam alone; for MIC50 / MIC90: fixed concentration (μg/mL) in label
[26] = cited from earlier work
[27] = All Enterobacterales (207), cefiderocol 205 isolates, CLSI breakpoints, marked c: breakpoints for β-lactam alone, tigecycline: FDA breakpoints
[28] = All Enterobacterales (207), cefiderocol 205 isolates, fixed concentration (μg/mL) in label
[29] = MEM-nonsusceptible Enterobacterales (92), CDC AR Bank
[30] = MEM-nonsusceptible Enterobacterales (127), cefiderocol 126 isolates, tigecycline: FDA breakpoints
[31] = Enterobacterales with serine-carbapenemases (61), CDC AR Bank, CLSI breakpoints, marked c: breakpoints for β-lactam alone
[32] = Enterobacterales with serine-carbapenemases (61), CDC AR Bank
[33] = Enterobacterales with serine-carbapenemases (80), CLSI breakpoints, marked c: breakpoints for β-lactam alone, tigecycline: FDA breakpoints
[34] = Enterobacterales with metallo-carbapenemases (47), CDC AR Bank, CLSI breakpoints, marked c: breakpoints for β-lactam alone
[35] = Enterobacterales with metallo-carbapenemases (47), CDC AR Bank
[36] = Enterobacterales with metallo-carbapenemases (74), cefiderocol 73 isolates, CLSI breakpoints, marked c: breakpoints for β-lactam alone, tigecycline: FDA breakpoints
[37] = Enterobacterales with metallo-carbapenemases (74), cefiderocol 73 isolates
[38] = Acinetobacter baumannii (55), CLSI breakpoints, marked c: breakpoints for β-lactam alone
[39] = Pseudomonas aeruginosa (96), CLSI breakpoints, marked c: breakpoints for β-lactam alone
[40] = Ceftolozane/tazobactam-nonsusceptible Pseudomonas aeruginosa (45)
[41] = Imipenem/relebactam-nonsusceptible Pseudomonas aeruginosa (43)
[42] = MEM-nonsusceptible Pseudomonas aeruginosa (76)
[43] = MEM-nonsusceptible Enterobacterales with serine-carbapenemases (42), CDC AR Bank
[44] = MEM-nonsusceptible Enterobacterales with serine-carbapenemases (58), tigecycline: FDA breakpoints

For `C[C@@H](O)[C@H]1C(=O)N2C(C(=O)O)=C(S[C@@H]3CN[C@H](C(=O)N(C)C)C3)[C@H](C)[C@H]12` [MEM, meropenem], the “CLSI MIC interpretation I (intermediate)” value [1, 27] was 11.1%, the “CLSI MIC interpretation R (resistant)” value [1, 27] was 50.2% and the “CLSI MIC interpretation S (susceptible)” value [1, 27] was 38.6%. For the same molecule, the MIC50 [1, 28] was 4 µg/mL (≈ 10.4 µM), the MIC90 [1, 28] was 32 µg/mL (≈ 83.4 µM) and the MIC50 ([1]; read-out: MIC50) was 4 µg/mL (≈ 10.4 µM). The MIC90 ([1]; read-out: MIC90) was 32 µg/mL (≈ 83.4 µM), the “CLSI MIC interpretation I (intermediate)” value [2, 29] was 16.3% and the “CLSI MIC interpretation R (resistant)” value [2, 29] was 83.7%. For the same molecule, the “CLSI MIC interpretation S (susceptible)” value [2, 29] was 0%, the MIC50 [2, 29] was 8 µg/mL (≈ 20.9 µM) and the MIC90 [2, 29] was over 32 µg/mL. The “CLSI MIC interpretation I (intermediate)” value [2, 30] was 18.1%, the “CLSI MIC interpretation R (resistant)” value [2, 30] was 81.9% and the “CLSI MIC interpretation S (susceptible)” value [2, 30] was 0%. The MIC50 ([2]; MEM-nonsusceptible Enterobacterales (127), cefiderocol 126 isolates, read-out: MIC50) was 8 µg/mL (≈ 20.9 µM), the MIC90 ([2]; MEM-nonsusceptible Enterobacterales (127), cefiderocol 126 isolates, read-out: MIC90) was over 32 µg/mL and the “CLSI MIC interpretation R (resistant)” value [3, 31] was 57.4%. The “CLSI MIC interpretation S (susceptible)” value [3, 31] was 31.1%, the MIC50 [3, 32] was 4 µg/mL (≈ 10.4 µM) and the MIC90 [3, 32] was 32 µg/mL (≈ 83.4 µM). The “CLSI MIC interpretation I (intermediate)” value [3, 33] was 11.3%, the “CLSI MIC interpretation R (resistant)” value [3, 33] was 61.3% and the “CLSI MIC interpretation S (susceptible)” value [3, 33] was 27.5%. For the same molecule, the MIC50 ([3]; Enterobacterales with serine-carbapenemases (80), read-out: MIC50) was 4 µg/mL (≈ 10.4 µM), the MIC90 ([3]; Enterobacterales with serine-carbapenemases (80), read-out: MIC90) was 32 µg/mL (≈ 83.4 µM) and the “CLSI MIC interpretation I (intermediate)” value [4, 34] was 10.6%. The “CLSI MIC interpretation R (resistant)” value [4, 34] was 76.6%, the MIC50 [4, 35] was 16 µg/mL (≈ 41.7 µM) and the MIC90 [4, 35] was over 32 µg/mL. The “CLSI MIC interpretation I (intermediate)” value [4, 36] was 9.5%, the “CLSI MIC interpretation R (resistant)” value [4, 36] was 64.9% and the “CLSI MIC interpretation S (susceptible)” value [4, 36] was 25.7%. The MIC50 [4, 37] was 8 µg/mL (≈ 20.9 µM), the MIC90 [4, 37] was over 32 µg/mL and the “CLSI MIC interpretation I (intermediate)” value [5, 38] was 5.5%. The “CLSI MIC interpretation R (resistant)” value [5, 38] was 89.1%, the “CLSI MIC interpretation S (susceptible)” value [5, 38] was 5.5% and the MIC50 ([5]; Acinetobacter baumannii (55), fixed concentration (μg/mL) in label) was 32 µg/mL (≈ 83.4 µM). For the same molecule, the MIC50 ([5]; Acinetobacter baumannii, read-out: MIC50) was 32 µg/mL (≈ 83.4 µM), the “CLSI MIC interpretation I (intermediate)” value [6, 39] was 11.5% and the “CLSI MIC interpretation R (resistant)” value [6, 39] was 67.7%. For the same molecule, the “CLSI MIC interpretation S (susceptible)” value [6, 39] was 20.8%, the MIC50 ([6]; Pseudomonas aeruginosa (96), fixed concentration (μg/mL) in label) was 16 µg/mL (≈ 41.7 µM) and the MIC50 ([6]; Pseudomonas aeruginosa, read-out: MIC50) was 16 µg/mL (≈ 41.7 µM). The “CLSI MIC interpretation I (intermediate)” value [7, 40] was 6.7%, the “CLSI MIC interpretation R (resistant)” value [7, 40] was 91.1% and the “CLSI MIC interpretation S (susceptible)” value [7, 40] was 2.2%. The “CLSI MIC interpretation I (intermediate)” value [7, 41] was 4.7%, the “CLSI MIC interpretation R (resistant)” value [7, 41] was 95.3% and the “CLSI MIC interpretation S (susceptible)” value [7, 41] was 0%. The “CLSI MIC interpretation I (intermediate)” value [7, 42] was 14.5%, the “CLSI MIC interpretation R (resistant)” value [7, 42] was 85.5% and the “CLSI MIC interpretation S (susceptible)” value [7, 42] was 0%. It also gave an MIC50 [7, 40] of 64 µg/mL, an MIC50 [7, 41] of 64 µg/mL and an MIC50 [7, 42] of 16 µg/mL (≈ 41.7 µM). It also gave an MIC [8] of 8 µg/mL (≈ 20.9 µM), an MIC [9] of 32 µg/mL (≈ 83.4 µM) and an MIC [10] of 32 µg/mL (≈ 83.4 µM). It also gave an MIC [11] of 4 µg/mL (≈ 10.4 µM), an MIC [12] of 1 µg/mL (≈ 2.61 µM) and an MIC [13] of at most 0.03 µg/mL. The MIC [14] was at most 0.03 µg/mL, the MIC [15] was at most 0.03 µg/mL and the MIC [16] was at most 0.03 µg/mL. For the same molecule, the MIC [17] was at most 0.03 µg/mL, the MIC [18] was 0.25 µg/mL (≈ 0.652 µM) and the MIC [19] was at most 0.03 µg/mL. The MIC [20] was 0.06 µg/mL (≈ 0.156 µM), the MIC [21] was 4 µg/mL (≈ 10.4 µM) and the MIC [22] was 0.12 µg/mL (≈ 0.313 µM). For the same molecule, the MIC [23] was at most 0.03 µg/mL, the MIC [24] was at most 0.03 µg/mL and the “CLSI MIC interpretation I (intermediate)” value [25, 43] was 16.7%. The “CLSI MIC interpretation R (resistant)” value [25, 43] was 83.3%, the “CLSI MIC interpretation S (susceptible)” value [25, 43] was 0% and the MIC50 [25, 43] was 8 µg/mL (≈ 20.9 µM). For the same molecule, the MIC90 [25, 43] was 32 µg/mL (≈ 83.4 µM), the “CLSI MIC interpretation I (intermediate)” value [25, 44] was 15.5% and the “CLSI MIC interpretation R (resistant)” value [25, 44] was 84.5%. The “CLSI MIC interpretation S (susceptible)” value [25, 44] was 0%, the MIC50 ([25]; MEM-nonsusceptible Enterobacterales with serine-carbapenemases (58), read-out: MIC50) was 8 µg/mL (≈ 20.9 µM) and the MIC90 ([25]; MEM-nonsusceptible Enterobacterales with serine-carbapenemases (58), read-out: MIC90) was 32 µg/mL (≈ 83.4 µM). The human protein binding [26] was 2%.
